# From patent US20180235993A1 (priority 2000, published 2018)
# Where two headings read alike, the source gives them in different places.
# Key:
# MDBK = test: Cytotoxicity assay (sulforhodamine B, CC50), MDBK; format: cell-based; conditions: MDBK cells, 4 days incubation
# Method: (§1) Cells were seeded at a rate of between 5×10^3 and 5×10^4/well into 96-well plates in growth medium overnight at 37° C. in a humidified CO2 (5%) atmosphere. New growth medium containing serial dilutions of the drugs was then added. After incubation for 4 days, cultures were fixed in 50% TCA and stained with sulforhodamineB. The optical density was read at 550 nm. The cytotoxic concentration was expressed as the concentration required to reduce the cell number by 50% (CC50).
# Human Hepatoma = test: Cytotoxicity assay (sulforhodamine B, CC50), Human Hepatoma; format: cell-based; conditions: 4 days incubation
# Method: as §1
# [1] = system: Human bone marrow cells (CFU-GM); test: Human bone marrow toxicity, CFU-GM clonogenic assay; format: cell-based; conditions: human bone marrow colony formation, 14 to 18 days; read-out: IC50 CFU-GM
# Source text: (§2) Human bone marrow cells were collected from normal healthy volunteers and the mononuclear population was separated by Ficoll-Hypaque gradient centrifugation as described previously by Sommadossi J-P, Carlisle R. “Toxicity of 3′-azido-3′-deoxythymidine and 9-(1,3-dihydroxy-2-propoxymethyl)guanine for normal human hematopoietic progenitor cells in vitro” Antimicrobial Agents and Chemotherapy 1987; 31:452-454; and Sommadossi J-P, Schinazi R F, Chu C K, Xie M-Y. “Comparison of cytotoxicity of the (−)- and (+)-enantiomer of 2′,3′-dideoxy-3′-thiacytidine in normal human bone marrow progenitor cells” Biochemical Pharmacology 1992; 44:1921-1925. The culture assays for CFU-GM and BFU-E were performed using a bilayer soft agar or methylcellulose method. Drugs were diluted in tissue culture medium and filtered. After 14 to 18 days at 37° C. in a humidified atmosphere of 5% CO2 in air, colonies of greater than 50 cells were counted using an inverted microscope. The results in Table 4 are presented as the percent inhibition of colony formation in the presence of drug compared to solvent control cultures.
# [2] = system: Human bone marrow cells (BFU-E); test: Human bone marrow toxicity, BFU-E clonogenic assay; format: cell-based; conditions: human bone marrow colony formation, 14 to 18 days
# Source text: as §2
# BVDV (strain NADL) = test: Cell Protection Assay (CPA); format: cell-based, Bovine Viral Diarrhea virus
# Method: The assay was performed essentially as described by Baginski, S. G.; Pevear, D. C.; Seipel, M.; Sun, S. C. C.; Benetatos, C. A.; Chunduru, S. K.; Rice, C. M. and M. S. Collett “Mechanism of action of a pestivirus antiviral compound” PNAS USA 2000, 97(14), 7981-7986. MDBK cells (ATCC) were seeded onto 96-well culture plates (4,000 cells per well) 24 hours before use. After infection with BVDV (strain NADL, ATCC) at a multiplicity of infection (MOI) of 0.02 plaque forming units (PFU) per cell, serial dilutions of test compounds were added to both infected and uninfected cells in a final concentration of 0.5% DMSO in growth medium. Each dilution was tested in quadruplicate. Cell densities and virus inocula were adjusted to ensure continuous cell growth throughout the experiment and to achieve more than 90% virus-induced cell destruction in the untreated controls after four days post-infection. After four days, plates were fixed with 50% TCA and stained with sulforhodamine B. The optical density of the wells was read in a microplate reader at 550 nm. The 50% effective concentration (EC50) values were defined as the compound concentration that achieved 50% reduction of cytopathic effect of the virus. FIGS. 4 and 5 provide a graphical illustration of the methodology used to arrive at the 50% effective concentration (EC50) values for β-D-2′-CH3-riboG and ribavirin. FIG. 6 compares the results of the CPA for β-D-2′-CH3-riboG, β-D-2′-CH3-riboC, riboU, β-D-2′-CH3-riboA and ribavirin
# BVDV = test: Plaque Reduction Assay; format: cell-based, Bovine Viral Diarrhea virus
# Method: For each compound the effective concentration was determined in duplicate 24-well plates by plaque reduction assays. Cell monolayers were infected with 100 PFU/well of virus. Then, serial dilutions of test compounds in MEM supplemented with 2% inactivated serum and 0.75% of methyl cellulose were added to the monolayers. Cultures were further incubated at 37° C. for 3 days, then fixed with 50% ethanol and 0.8% Crystal Violet, washed and air-dried. FIG. 7 is a graphical illustration of the results from the Plaque Reduction Assay. FIG. 8 is an image of BVDV plaque formation in the presence of increasing concentrations of β-D-2′-CH3-riboU.
# BVDV (NADL strain) = test: Yield Reduction Assay; format: cell-based, Bovine Viral Diarrhea virus
# Method: The assay was performed as described by Baginski, S. G.; Pevear, D. C.; Seipel, M.; Sun, S. C. C.; Benetatos, C. A.; Chunduru, S. K.; Rice, C. M. and M. S. Collett “Mechanism of action of a pestivirus antiviral compound” PNAS USA 2000, 97(14), 7981-7986, with minor modifications. Briefly, MDBK cells were seeded onto 24-well plates (2×10^5 cells per well) 24 hours before infection with BVDV (NADL strain) at a multiplicity of infection (MOI) of 0.1 PFU per cell. Serial dilutions of test compounds were added to cells in a final concentration of 0.5% DMSO in growth medium. Each dilution was tested in triplicate. After three days, cell cultures (cell monolayers and supernatants) were lysed by three freeze-thaw cycles, and virus yield was quantified by plaque assay. Briefly, MDBK cells were seeded onto 6-well plates (5×10^5 cells per well) 24 h before use. Cells were inoculated with 0.2 mL of test lysates for 1 hour, washed and overlaid with 0.5% agarose in growth medium. After 3 days, cell monolayers were fixed with 3.5% formaldehyde and stained with 1% crystal violet (w/v in 50% ethanol) to visualize plaques. FIG. 9 is a graphical illustration of the results from the Yield Reduction Assay. FIG. 8 is an image of BVDV yield reduction in the presence of increasing concentrations of β-D-2′-CH3-riboC.
# [3] = system: Bovine Viral Diarrhea virus (BVDV); test: microbe, parasite or virus in culture; format: cell-based; conditions: read-out: BVDV EC50
# YFV-17D = test: microbe, parasite or virus in culture; format: cell-based, Yellow fever virus vaccine strain 17D; conditions: Table 12; reduce the plaque number by 50%; YFV-BHK; read-out: YFV EC50
# HepG2 cells [4] = test: Phosphorylation assay of nucleoside to active triphosphate; format: in vitro ADME; conditions: 10 μM [3H] labeled compound
# Method: To determine the cellular metabolism of the compounds, HepG2 cells were obtained from the American Type Culture Collection (Rockville, Md.), and were grown in 225 cm^2 tissue culture flasks in minimal essential medium supplemented with non-essential amino acids, 1% penicillin-streptomycin. The medium was renewed every three days, and the cells were subcultured once a week. After detachment of the adherent monolayer with a 10 minute exposure to 30 mL of trypsin-EDTA and three consecutive washes with medium, confluent HepG2 cells were seeded at a density of 2.5×10^6 cells per well in a 6-well plate and exposed to 10 μM of [^3H] labeled active compound (500 dpm/pmol) for the specified time periods. The cells were maintained at 37° C. under a 5% CO2 atmosphere. At the selected time points, the cells were washed three times with ice-cold phosphate-buffered saline (PBS). Intracellular active compound and its respective metabolites were extracted by incubating the cell pellet overnight at −20° C. with 60% methanol followed by extraction with an additional 20 μL of cold methanol for one hour in an ice bath. The extracts were then combined, dried under gentle filtered air flow and stored at −20° C. until HPLC analysis.
# HepG2 cells [5] = test: Mitochondria toxicity assay (L-lactic acid assay); format: cell-based; conditions: Conc. 10 μM, 4 day drug exposure
# Method: HepG2 cells were cultured in 12-well plates as described above and exposed to various concentrations of drugs as taught by Pan-Zhou X-R, Cui L, Zhou X-J, Sommadossi J-P, Darley-Usmer V M. “Differential effects of antiretroviral nucleoside analogs on mitochondrial function in HepG2 cells” Antimicrob Agents Chemother 2000; 44:496-503. Lactic acid levels in the culture medium after 4 day drug exposure was measured using a Boehringer lactic acid assay kit. Lactic acid levels were normalized by cell number as measured by hemocytometer count.
# [6] = HepG2 cells, read-out: CC50 HepG2
# [7] = Huh7 cells, read-out: CC50 Huh7
# [8] = read-out: Cell Protection (EC50)
Compound,CC50 (MDBK),CC50 (Human Hepatoma; [6]),CC50 (Human Hepatoma; [7]),intracellular triphosphate level (HepG2 cells [4]; 8 h),intracellular triphosphate level (HepG2 cells [4]; 24 h),intracellular triphosphate level (HepG2 cells [4]; 30 h),intracellular triphosphate level (HepG2 cells [4]; 48 h),further results
C[C@@]1(O)[C@H](O)[C@@H](CO)O[C@H]1n1ccc(=O)[nH]c1=O [β-D-2'-CH3-riboU],> 250 µM,> 250 µM,> 250 µM,–,–,–,–,–
CC1(O)[C@@H](O)[C@@H](CO)O[C@H]1n1cnc2c(=O)[nH]c(N)nc21 (stereo partly drawn) [β-D-2'-CH3-riboG],100 µM,> 250 µM,> 250 µM,–,–,–,–,–
C[C@@]1(O)[C@H](O)[C@@H](CO)O[C@H]1n1ccc(=O)[nH]c1=O [β-D-2′-CH3-riboU],–,–,–,–,–,–,–,"IC50 [1]: > 100 µM; IC50 [2]: > 100 µM; EC50 (BVDV (strain NADL); [8]): 20 µM; EC50 (BVDV (strain NADL); read-out: EC50): 20 µM; EC90 (BVDV; read-out: EC90): < 81 µM; EC90 (BVDV; read-out: Plaque Reduction (EC90)): < 81 µM; Conc. for 6-log Reduction (BVDV (NADL strain)): 120 μM; EC90 (BVDV (NADL strain)): 24 µM; Yield Reduction 6 log10 reduction (μM) (BVDV (NADL strain)): 120 μM; EC50 [3]: 20 µM; EC50 (YFV-17D): 33 µM; CC50 (MDBK cells): > 250 µM; CC50 (various cell systems): > 100 µM; CC50 (various cell systems; read-out: YFV CC50, Table 12, reduce the viability of cells by 50%, YFV-BHK system): > 100 µM"
C[C@@]1(O)[C@H](O)[C@@H](CO)O[C@H]1n1ccc(N)nc1=O [β-D-2'-CH3-riboC],100 µM,150 µM,> 250 µM,–,–,–,–,–
C[C@@]1(O)[C@H](O)[C@@H](COP(=O)(O)OP(=O)(O)OP(=O)(O)O)O[C@H]1n1cnc2c(N)ncnc21 [β-D-2′-CH3-riboA-TP],–,–,–,147 pmol/million cells,427 pmol/million cells,456 pmol/million cells,288 pmol/million cells,intracellular triphosphate level (HepG2 cells [4]; 2 h): 33.1 pmol/million cells; intracellular triphosphate level (HepG2 cells [4]; 4 h): 67.7 pmol/million cells
C[C@@]1(O)[C@H](O)[C@@H](COP(=O)(O)OP(=O)(O)OP(=O)(O)O)O[C@H]1n1cnc2c(=O)[nH]c(N)nc21 [β-D-2′-CH3-riboG-TP],–,–,–,2.85 pmol/million cells,0.91 pmol/million cells,3.22 pmol/million cells,6.26 pmol/million cells,–
Cc1cn([C@@H]2O[C@H](CO)[C@@H](O)[C@@]2(C)O)c(=O)[nH]c1=O [β-D-2′-CH3-riboT],–,–,–,–,–,–,–,EC50 (BVDV (strain NADL); [8]): > 250 µM
C[C@@]1(O)[C@H](O)[C@@H](COP(=O)(O)OP(=O)(O)OP(=O)(O)O)O[C@H]1n1ccc(=O)[nH]c1=O [β-D-2′-CH3-riboU-TP],–,–,–,1.57 pmol/million cells,6.39 pmol/million cells,7.18 pmol/million cells,9.42 pmol/million cells,intracellular triphosphate level (HepG2 cells [4]; 2 h): 0.40 pmol/million cells; intracellular triphosphate level (HepG2 cells [4]; 4 h): 1.21 pmol/million cells
C[C@@]1(O)[C@H](O)[C@@H](CO)O[C@H]1n1cnc2c(=O)[nH]cnc21 [β-D-2′-CH3-riboI],–,–,–,–,–,–,–,EC50 (BVDV (strain NADL); [8]): 45 µM
CC1(O)[C@@H](O)[C@@H](CO)O[C@H]1n1cnc2c(N)ncnc21 (stereo partly drawn) [β-D-2'-CH3-riboA],20 µM,50 to 60 µM,40 µM,–,–,–,–,–
C[C@@]1(O)[C@H](O)[C@@H](COP(=O)(O)OP(=O)(O)OP(=O)(O)O)O[C@H]1n1ccc(N)nc1=O [β-D-2′-CH3-riboC-TP],–,–,–,9.76 pmol/million cells,34.9 pmol/million cells,36.2 pmol/million cells,56.4 pmol/million cells,intracellular triphosphate level (HepG2 cells [4]; 2 h): 2.24 pmol/million cells; intracellular triphosphate level (HepG2 cells [4]; 4 h): 3.99 pmol/million cells
"O=c1[nH]c(=O)n([C@@H]2O[C@H](CO)[C@@H](O)[C@@H]2F)cc1I [FIAU, reference compound]",–,–,–,–,–,–,–,lactate (HepG2 cells [5]): 3.73 mg/10^6 cell; lactate % of Control (HepG2 cells [5]): 170.4%
